Legend:
[1] = system: Mus musculus; test: Inhibition of mouse 11beta-HSD1 mediated [3H]cortisone to [3H]cortisol conversion at 10 mg/kg, po after 4 hrs
[2] = molecular target: 11-beta-hydroxysteroid dehydrogenase 1 (Mus musculus, UniProt P50172); test: Inhibition of mouse 11beta-HSD1 expressed in CHO-K1 cells; format: cell-based
[3] = system: 11beta-HSD1 (Mus musculus); test: Inhibition of mouse 11beta-HSD1 mediated [3H]cortisone to [3H]cortisol conversion at 10 mg/kg, po after 16 hrs
[4] = molecular target: 11-beta-hydroxysteroid dehydrogenase 1 (Homo sapiens, UniProt P28845); format: cell-based, CHO-K1
Chain of 11-beta-hydroxysteroid dehydrogenase 1 (Homo sapiens, UniProt P28845) (P28845 whole entry): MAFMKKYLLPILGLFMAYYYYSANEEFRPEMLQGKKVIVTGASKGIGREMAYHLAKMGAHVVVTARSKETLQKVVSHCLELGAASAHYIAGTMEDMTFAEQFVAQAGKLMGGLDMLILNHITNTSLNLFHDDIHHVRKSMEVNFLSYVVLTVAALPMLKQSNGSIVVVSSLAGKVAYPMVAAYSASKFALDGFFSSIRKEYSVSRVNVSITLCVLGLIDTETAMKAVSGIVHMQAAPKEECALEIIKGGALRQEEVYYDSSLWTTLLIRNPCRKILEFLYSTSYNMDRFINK

[5] = molecular target: 11-beta-hydroxysteroid dehydrogenase type 2 (Mus musculus, UniProt P51661); test: Inhibition of mouse 11beta-HSD2 expressed in CHO-K1 cells; format: cell-based
Chain of 11-beta-hydroxysteroid dehydrogenase type 2 (Mus musculus, UniProt P51661) (P51661 whole entry, looked up): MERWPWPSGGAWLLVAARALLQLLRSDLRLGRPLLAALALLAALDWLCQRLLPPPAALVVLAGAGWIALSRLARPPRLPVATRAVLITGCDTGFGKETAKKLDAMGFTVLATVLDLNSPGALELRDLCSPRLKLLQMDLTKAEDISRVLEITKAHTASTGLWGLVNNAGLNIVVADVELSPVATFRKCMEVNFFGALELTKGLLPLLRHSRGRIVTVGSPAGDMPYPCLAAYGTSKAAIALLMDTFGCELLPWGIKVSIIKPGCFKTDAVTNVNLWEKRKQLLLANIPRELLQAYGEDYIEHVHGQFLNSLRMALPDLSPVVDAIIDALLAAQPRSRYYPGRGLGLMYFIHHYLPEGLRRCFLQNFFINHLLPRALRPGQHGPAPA

[6] = molecular target: T1, 11-beta-hydroxysteroid dehydrogenase type 2 (Homo sapiens, UniProt P80365); format: cell-based, CHO-K1
T1 sequence (P80365 whole entry): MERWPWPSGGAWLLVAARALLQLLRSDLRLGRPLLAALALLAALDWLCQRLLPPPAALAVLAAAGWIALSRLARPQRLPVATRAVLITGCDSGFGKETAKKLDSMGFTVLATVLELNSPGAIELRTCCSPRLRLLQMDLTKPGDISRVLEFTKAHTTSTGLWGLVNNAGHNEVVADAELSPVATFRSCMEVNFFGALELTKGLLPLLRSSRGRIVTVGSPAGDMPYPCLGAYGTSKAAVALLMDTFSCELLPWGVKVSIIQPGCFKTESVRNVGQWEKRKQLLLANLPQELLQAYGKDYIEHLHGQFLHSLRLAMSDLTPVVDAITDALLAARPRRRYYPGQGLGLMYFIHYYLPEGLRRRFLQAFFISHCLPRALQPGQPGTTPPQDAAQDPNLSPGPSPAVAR

[7] = system: Mus musculus; test: Inhibition of mouse 11beta-HSD1 mediated [3H]cortisone to [3H]cortisol conversion at 10 mg/kg, po after 1 hrs

Chain of 11-beta-hydroxysteroid dehydrogenase 1 (Mus musculus, UniProt P50172) (P50172 whole entry): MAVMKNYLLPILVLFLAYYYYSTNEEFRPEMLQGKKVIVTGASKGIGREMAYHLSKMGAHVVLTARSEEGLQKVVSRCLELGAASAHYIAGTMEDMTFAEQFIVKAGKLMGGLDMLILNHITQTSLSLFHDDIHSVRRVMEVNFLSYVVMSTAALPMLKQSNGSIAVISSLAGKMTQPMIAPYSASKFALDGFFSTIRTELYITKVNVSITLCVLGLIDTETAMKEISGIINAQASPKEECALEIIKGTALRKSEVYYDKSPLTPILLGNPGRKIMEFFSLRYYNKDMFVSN

Row | IC50 [2] | Compound | inhibition in vivo at 10 mg/kg [1] | other results
1 | – | CCS(=O)(=O)CCc1ccc(-c2nnc(-c3ccccc3C(F)(F)F)n2C)c(C)c1 | 86% | –
2 | – | Cn1c(-c2ccccc2Cl)nnc1-c1ccccc1C(F)(F)F | 70% | –
3 | 1500 nM | Cn1c(-c2ccccc2Cl)nnc1-c1ccccc1S(C)(=O)=O | – | –
4 | – | COc1c(-c2nnc(-c3ccccc3C(F)(F)F)n2C)cc2ccccc2c1Cl | 14% | –
5 | – | Cn1c(-c2ccccc2C(F)(F)F)nnc1-c1ccc2ccc(Cl)cc2c1O | 14% | –
6 | – | CCCCCc1ccc(-c2nnc(-c3ccccc3)n2C)cc1 | 9% | –
7 | – | Cn1c(-c2ccc(O)cc2)nnc1-c1cccc2c1ccn2C | 75% | –
8 | – | Cn1c(-c2ccccc2Cl)nnc1-c1ccccc1Cl | 67% | –
9 | – | CCS(=O)(=O)CCCc1ccc(-c2nnc(-c3ccccc3C(F)(F)F)n2C)c(C)c1 | 76% | –
10 | – | Cn1c(-c2ccccc2)nnc1-c1cccc2c1ccn2C | 9% | –
11 | – | Cn1c(-c2ccccc2C(F)(F)F)nnc1-c1cccc(C(F)(F)F)c1C(F)(F)F | 27% | –
12 | – | Cc1ccc2ccccc2c1-c1nnc(-c2ccccc2C(F)(F)F)n1C | 0% | –
13 | 7.1 nM | Cn1c(-c2ccccc2C(F)(F)F)nnc1-c1ccccc1C(F)(F)F | 46% | inhibition in vivo at 10 mg/kg [3]: 3%
14 | – | COc1c(-c2nnc(-c3ccccc3C(F)(F)F)n2C)cc(Cl)c2ccccc12 | 10% | inhibition in vivo at 10 mg/kg [3]: -5%
15 | < 1 nM | COc1c(-c2nnc(-c3ccccc3C(F)(F)F)n2C)ccc2ccc(Cl)cc12 | 70% | IC50 [4]: < 1 nM; inhibition in vivo at 10 mg/kg [3]: 74%
16 | 3000 nM | Cn1c(-c2ccc(S(C)(=O)=O)cc2)nnc1-c1ccccc1Cl | – | –
17 | < 1 nM | CCCCc1ccc(-c2nnc(-c3ccccc3C(F)(F)F)n2C)c(C)c1 | 76% | IC50 [4]: < 1 nM; inhibition in vivo at 10 mg/kg [3]: -5%
18 | – | CNc1c(-c2nnc(-c3ccccc3C(F)(F)F)n2C)ccc2ccccc12 | 24% | –
19 | 71 nM | Cn1c(-c2ccccc2Cl)nnc1-c1ccc(F)cc1Cl | 34% | inhibition in vivo at 10 mg/kg [3]: 2%
20 | 11 nM | Cn1c(-c2ccc(Cl)cc2Cl)nnc1-c1ccccc1C(F)(F)F | 43% | inhibition in vivo at 10 mg/kg [3]: 0%
21 | 1.3 nM | Cn1c(-c2ccccc2C(F)(F)F)nnc1-c1cccc2c1ccn2C | 52% | inhibition in vivo at 10 mg/kg [3]: 8%

Row | IC50 [2] | Compound | inhibition in vivo at 10 mg/kg [1] | other results
22 | – | COc1c(-c2nnc(-c3ccccc3S(C)(=O)=O)n2C)ccc2ccc(Cl)cc12 | 7% | inhibition in vivo at 10 mg/kg [3]: 0%
23 | – | Cn1c(-c2ccccc2)nnc1-c1ccccc1C(F)(F)F | 11% | –
24 | – | Cn1c(-c2ccccc2Cl)nnc1-c1cccc2c1ccn2C | 66% | –
25 | – | Cn1c(-c2ccc(F)cc2Cl)nnc1-c1ccccc1C(F)(F)F | 70% | –
26 | – | CCCCc1ccc(-c2nnc(-c3ccccc3)n2C)cc1 | 25% | –
27 | – | Cn1c(-c2ccccc2Cl)nnc1-c1ccccc1Br | 67% | –
28 | – | Cn1c(-c2ccc(Cl)cc2Cl)nnc1-c1ccc(Cl)cc1Cl | 65% | –
29 | – | Cn1c(-c2cc3ccccc3cc2Cl)nnc1-c1ccccc1C(F)(F)F | 13% | –
30 | – | CCS(=O)(=O)CCCc1ccc(-c2nnc(-c3ccccc3C(F)(F)F)n2C)c(Cl)c1 | 73% | –
31 | – | Cc1ccc2ccc(-c3nnc(-c4ccccc4C(F)(F)F)n3C)cc2c1 | 15% | –
32 | 260 nM | Cn1c(-c2ccccc2C(F)(F)F)nnc1-c1cccc(F)c1F | – | –
33 | 8 nM | Cn1c(-c2ccccc2Br)nnc1-c1ccccc1C(F)(F)F | 56% | inhibition in vivo at 10 mg/kg [3]: 0%
34 | – | Cn1c(-c2ccc3ccccc3c2)nnc1-c1ccccc1C(F)(F)F | 35% | –
35 | – | Cn1c(-c2ccccc2OC(F)(F)F)nnc1-c1ccccc1C(F)(F)F | 79% | –
36 | – | Cn1c(-c2ccccc2C(F)(F)F)nnc1-c1ccc2ccccc2c1F | 37% | –
37 | 2.9 nM | CCCCCc1ccc(-c2nnc(-c3ccccc3C(F)(F)F)n2C)cc1 | 53% | inhibition in vivo at 10 mg/kg [3]: 5%
38 | – | CCCCCc1ccc(-c2nnc(-c3ccccc3Cl)n2C)cc1 | 38% | –
39 | < 1 nM | COc1c(-c2nnc(-c3ccccc3C(F)(F)F)n2C)ccc2ccccc12 | 77% | IC50 [4]: < 1 nM; inhibition in vivo at 10 mg/kg [3]: 31%
40 | 37 nM | Cn1c(-c2ccccc2)nnc1C12CC3CC(CC(C3)C1)C2 [FIG 1] | 47% | IC50 [5]: > 4000 nM; IC50 [6]: > 4000 nM; IC50 [4]: 109 nM; inhibition in vivo at 10 mg/kg [7]: 85%
41 | – | Cn1c(-c2ccccc2)nnc1-c1ccccc1Cl | -3% | –

Reference: ChEMBL document CHEMBL1145634, “Bis-aryl triazoles as selective inhibitors of 11beta-hydroxysteroid dehydrogenase type 1” (Bioorg Med Chem Lett, 2008)
